Patent US7317001B2, “Use of ramoplanin to treat diseases associated with the use of antibiotics” (priority 2002, dated 2008)

What was measured:
[1] = Multiple oral dose study in healthy male volunteers: absorption and fecal concentrations; format: in vivo, human
Experimental: Healthy male volunteers were administered 200, 400, or 800 mg ramoplanin twice-a-day, for ten consecutive days. The predetermined dose was reconstituted in 5 mL water per vial, mixed with 50 mL of sweetened, aromatized solution, and immediately administered orally to the subjects.
No absorption from the human gastrointestinal tract was observed.

C. difficile [2] = experiment: Recovery of C. difficile spores or vegetative cells from clindamycin-treated animals; format: in vivo, hamster; conditions: after single dose of clindamycin and treatment
Experimental: In another study, animals were administered a single dose of clindamycin and then treated with either vancomycin or ramoplanin.

[3] = system: Gram-positive bacteria (staphylococci, streptococci, enterococci); experiment: Multiple dose study, antibacterial activity on stool microflora: Gram-positive bacteria; format: in vivo, human
Experimental: (§1) The antibacterial activity of ramoplanin on the stool microflora was assessed in a subset of the subjects. Microbial concentrations (i.e., the number of organisms per gram of fecal matter) were determined at the following time points: Day −4 (pre-treatment), Days 4 and 10 (treatment), and Days 7 and 24 (follow-up). Tolerability and absorption were also investigated.

[4] = Single oral dose study in healthy male volunteers: absorption and fecal recovery; format: in vivo, human
Experimental: The absorption, tolerability, and recovery of ramoplanin following single dose oral administration were investigated in male volunteers. Ramoplanin was administered as an aqueous solution at a dose of 100, 200, 500, or 1000 mg to fasting subjects. Serum samples were obtained prior to drug administration of ramoplanin and 0.5, 1, 2, 3, 6, 9, 12, 24, 48, 72, and 96 hours after treatment. Urine samples were collected prior to administration of ramoplanin and over the periods 0-3,3-6, 6-12, 12-24, 24-48, 48-72, and 72-96 hours after dosing. Fecal samples were collected prior to dosing and over the periods 0-16 (Day 1), 16-40 (Day 2), 40-64 (Day 3), 64-88 (Day 4), and 88-96 (Day 5) hours after dosing. A microbiological assay employing Bacillis subtilis ATCC 6633 as the test organism was used to determine ramoplanin concentrations in serum, urine, and feces. The limits of quantitation for this assay were 0.02 μg/mL in serum, 0.012 μg/mL in urine, and 3 μg/g in feces. Tolerability was assessed on the basis of clinical signs and symptoms and the results of blood and urine laboratory tests.

C. difficile strain 4013 [5] = experiment: Hamster CDAD induced by oral C. difficile challenge plus clindamycin; format: in vivo, Syrian hamsters; conditions: for animals surviving the study: all doses
Experimental: In a second study, animals were challenged orally with a bacterial suspension of C. difficile and then administered a single s.c. injection of 100 mg/kg clindamycin. Oral treatment with ramoplanin or vancomycin at 25-50-100 mg/kg or metronidazole at 100-200-400 mg/kg started 24 hours after clindamycin administration and lasted for five days. Hamsters were weighed and observed every 24 hours for evidence of diarrhea or moribund conditions, and the cecal contents were analyzed for C. difficile toxin A (ELISA).

Clostridium spp. = experiment: Multiple dose study, antibacterial activity on stool microflora: Clostridium spp.; format: in vivo, human
Experimental: as §1

[6] = In vitro interaction of ramoplanin with human intestinal contents
Excerpt: The in vitro interaction of ramoplanin with human intestinal contents was studied. […] The binding and the subsequent release of ramoplanin from feces would likely result in long-lasting concentrations in the intestinal tract.

[7] = system: Gram-negative bacteria (enteric bacteria and Bacteroides spp.) or yeast; experiment: Multiple dose study, antibacterial activity on stool microflora: Gram-negative bacteria and yeast; format: in vivo, human
Experimental: as §1

VRE = experiment: Multiple dose study in asymptomatic carriers of intestinal VRE; format: in vivo, human; conditions: for patients remaining VRE free: Day 14 (seven days after cessation)
Experimental: Patients identified as asymptomatic carriers of VRE were administered placebo or one of two dosages (100 mg, 400 mg) of ramoplanin BID (twice daily) for seven days. Patients were assessed by rectal swab on Days 7, 14, and 21 to determine the presence or absence of VRE. On Days 45 and 90, stool samples were analyzed for long-term effects of ramoplanin on the recurrence of, or reinfection with, VRE. All VRE isolates were tested for susceptibility to ramoplanin.

C. difficile strain 4013 [8] = experiment: Hamster CDAD, different durations of treatment; format: in vivo, Syrian hamsters; conditions: ramoplanin 50 mg/kg oral daily for 3 days versus vancomycin 50 mg/kg for 5 days
Experimental: Hamsters were inoculated with C. difficile on day 0 and then administered 100 mg/kg clindamycin s.c. on day 1. Hamsters received daily oral doses of 50 mg/kg ramoplanin or vancomycin for 3 or 5 days starting on day 2.

C. difficile [9] = experiment: Hamster model of clindamycin-induced C. difficile-associated colitis; format: in vivo, Syrian hamsters; conditions: oral 50 mg/kg/day for 5 days; for survival rate: from 24 hours after clindamycin 100 mg/kg s.c., monitored 20 days
Experimental: To evaluate the in vivo efficacy of ramoplanin in the treatment of C. difficile-associated colitis, ramoplanin was tested in a hamster model of clindamycin (CL)-induced colitis in comparison with both vancomycin and metronidazole. Animals were treated with a single subcutaneous (s.c.) injection of 100 mg/kg clindamycin, and after 24 hours received oral ramoplanin or vancomycin at 50 mg/kg/day for 5 days. Animals were observed daily for the presence or absence of diarrhea. Necropsies were performed on some animals that died during the experiment, and cecal contents were assayed for C. difficile toxin A. Hamsters were monitored for 20 days, and the cumulative mortality during this period was recorded (FIG. 1). […] C. difficile toxin A was always detected in these animals. […] All hamsters that died had gross pathologic evidence of enterocolitis and cecal contents were positive for Toxin A.

Compound: ramoplanin
- absorption from the human gastrointestinal tract ([1]; 200, 400 or 800 mg twice-a-day for ten days): No absorption
- urine levels ([1]; Day 1 and 5 and pooled urine up to 72-96 after the last dose): No levels were found in urine
- average fecal concentration ([1]; Day 3, 200 mg twice-a-day): 827 µg/g
- average fecal concentration ([1]; Day 3, 400 mg twice-a-day): 1742 µg/g
- average fecal concentration ([1]; Day 3, 800 mg twice-a-day): 1901 µg/g
- average fecal concentration ([1]; Day 10, 200 mg twice-a-day): 949 µg/g
- average fecal concentration ([1]; Day 10, 400 mg twice-a-day): 1417 µg/g
- average fecal concentration ([1]; Day 10, 800 mg twice-a-day): 2647 µg/g
- serum levels ([1]; Days 1, 5 and 10, hour 0.5, 1, 2, 3, 6, 9 and 12 after the morning dose): no serum levels of ramoplanin were detected
- fecal concentrations post-treatment ([1]; after ten days of twice-a-day dosing): remained detectable in some subjects four days post-treatment
- cumulative recovery in feces, of the administered dose ([1]; up to Day 4 post-treatment): 25%
- recovery of C. difficile spores or vegetative cells (C. difficile [2]): No C. difficile spores or vegetative cells were recovered
- Gram-positive colony counts in feces ([3]; all doses (200, 400 or 800 mg BID), during the 10-day regimen): undetectable levels
- concentrations of staphylococci, streptococci and enterococci in stool ([3]; by Day 10, all subjects): below the level of detection
- effect on Gram-positive bacteria of the stool ([3]; first measurement on Day 4): marked effect
- mean cumulative recovery in feces, of the administered dose ([4]; 100 mg single oral dose): 67.7%
- mean maximum concentration in feces ([4]; 100 mg single oral dose): 214 µg/g
- range of cumulative recovery in feces ([4]; 100 mg single oral dose): 55.7-84%
- range of maximum concentrations in feces ([4]; 100 mg single oral dose): 148 to 278 µg/g
- mean cumulative recovery in feces, of the administered dose ([4]; 200 mg single oral dose): 48.5%
- mean maximum concentration in feces ([4]; 200 mg single oral dose): 287 µg/g
- range of cumulative recovery in feces ([4]; 200 mg single oral dose): 39.3-56.5%
- range of maximum concentrations in feces ([4]; 200 mg single oral dose): 164 to 454 µg/g
- mean cumulative recovery in feces, of the administered dose ([4]; 500 mg single oral dose): 52.8%
- mean maximum concentration in feces ([4]; 500 mg single oral dose): 1655 µg/g
- range of cumulative recovery in feces ([4]; 500 mg single oral dose): 41.3-79.6%
- range of maximum concentrations in feces ([4]; 500 mg single oral dose): 737 to 3316 µg/g
- mean cumulative recovery in feces, of the administered dose ([4]; 1000 mg single oral dose): 46.4%
- mean maximum concentration in feces ([4]; 1000 mg single oral dose): 1835 µg/g
- range of cumulative recovery in feces ([4]; 1000 mg single oral dose): 39.9-58.4%
- range of maximum concentrations in feces ([4]; 1000 mg single oral dose): 1336 to 3154 µg/g
- subjects with ramoplanin still detectable in feces ([4]; fourth day of study, single oral dose): 17 of 24
- time of maximum concentration and maximum percentage recovery in feces ([4]; single oral dose, not dose dependent): Day 2
- detection in serum/plasma or urine ([4]; single oral doses up to 1000 mg and multiple oral doses 200, 400 or 800 mg BID for 10 days, bioassay and HPLC): not detected
- survival at the end of observation period (C. difficile strain 4013 [5]; 100 mg/kg oral for five days): 20%
- time of death compared to vancomycin-treated animals (C. difficile strain 4013 [5]; oral for five days): delayed compared to that of vancomycin-treated animals
- clostridial load in the two subjects carrying ramoplanin- and vancomycin-resistant Clostridium spp. (C. rectum and C. bejerinckii) (Clostridium spp.; multiple dose, ten days): no variation in the clostridial load
- subjects with Clostridium spp. concentration reduced below detectable levels (Clostridium spp.; multiple dose, ten days): 10 of 12
- ramoplanin- or vancomycin-resistant C. difficile strains in stool (Clostridium spp.; pre- or post-treatment): No ramoplanin- or vancomycin-resistant strain of C. difficile was detected
- binding to solid components of feces [6]: bind reversibly to solid components of feces
- microbiological activity in feces [6]: microbiologically active in feces
- activity against Gram-negative flora in feces ([7]; 200, 400 or 800 mg BID for 10 days): not effective
- effect on Gram-negative bacteria (enteric bacteria and Bacteroides spp.) or yeast of the stool ([7]; multiple dose, ten days): no effect
- suppression of intestinal VRE (primary efficacy variable) (VRE; 100 mg or 400 mg BID for seven days): effectively suppressed intestinal VRE
- patients with no detectable VRE (VRE; Day 7, 100 mg BID for seven days, 17 of 21 patients): 81.0%
- patients with no detectable VRE (VRE; Day 7, 400 mg BID for seven days, 18 of 20 patients): 90.0%
- patients remaining VRE free (VRE; 100 mg BID, 6 of 21 patients): 28.6%
- patients remaining VRE free (VRE; 400 mg BID, 7 of 17 patients): 41.2%
- number of VRE-free patients (VRE; Day 21): comparable among all treatment groups
- efficacy by duration of treatment (C. difficile strain 4013 [8]): more effective than vancomycin administration for 5 days
- prolonging survival and protecting animals from death (C. difficile [9]): highly effective
- survival rate (C. difficile [9]): 80%

Compound: CN[C@H](CC(C)C)C(=O)N[C@H]1C(=O)N[C@@H](CC(N)=O)C(=O)N[C@H]2C(=O)N[C@H]3C(=O)N[C@H](C(=O)N[C@H](C(=O)O)c4cc(O)cc(O)c4-c4cc3ccc4O)[C@H](O)c3ccc(c(Cl)c3)Oc3cc2cc(c3O[C@@H]2O[C@H](CO)[C@@H](O)[C@H](O)[C@H]2O[C@H]2C[C@](C)(N)[C@H](O)[C@H](C)O2)Oc2ccc(cc2Cl)[C@H]1O [vancomycin, reference compound]
- recovery of C. difficile spores or vegetative cells (C. difficile [2]): C. difficile spores were recovered from some of the animals
- animals surviving the study (C. difficile strain 4013 [5]; oral for five days): No animals treated with vancomycin or metronidazole survived the study
- prolonging survival and protecting animals from death (C. difficile [9]): highly effective
- survival rate (C. difficile [9]): 20%

Compound: Cc1ncc([N+](=O)[O-])n1CCO [metronidazole]
- animals surviving the study (C. difficile strain 4013 [5]; oral for five days): No animals treated with vancomycin or metronidazole survived the study
- prolonged survival (C. difficile strain 4013 [5]; oral for five days, ramoplanin or vancomycin 25-50-100 mg/kg, metronidazole 100-200-400 mg/kg): 9 days
